The text below walks through data of patent publication US20200087271A1, “N-CYCLOBUTYL-THIAZOL-5-CARBOXAMIDES WITH NEMATICIDAL ACTIVITY” (SYNGENTA PARTICIPATIONS AG, priority 2016, published 2020).

Series [1] concerns Meloidogyne spp. (root-knot nematode). Kind of series: Meloidogyne spp. contact activity, preventive, cucumber seed in filter paper pouch. Format: in vivo. The procedure:
(§1) Filter papers (9 cm×4.5 cm) with a small pocket were placed into plastic pouches (12 cm×6 cm). One cucumber cv. Toshka seed was placed in the centre of the filter paper pocket of all the pouches needed for a test. […] Prior to application, the compound solution was prepared at twice the concentration required and the egg suspension is prepared with FORL nutrient solution with 3000 eggs/0.5 ml. After applying all the treatments, 3000 eggs (in 0.5 ml of FORL nutrient solution) were pipetted into the pouches. The pouches were incubated in a moist chamber for twelve days and watered regularly to maintain good filter paper moisture essential for the growing cucumber root system. After this period, the filter paper containing the germinated cucumber seedling was removed from the plastic pouch to assess the number of galls caused by Meloidogyne spp. per root system. Phytotoxicity was measured as a reduction of growth of the emerged cucumber seedling in comparison to the control.
as §1, with “system.” for “system. Phytotoxicity was measured as a reduction of growth of the emerged cucumber seedling in comparison to the control.”

A further series has as its system M. incognita. Kind of series: Meloidogyne spp. contact activity, preventive, cucumber in pots treated with WP10 suspension. Format: in vivo. The procedure:
Cucumber cv. Toshka seeds were sown directly into pots filled with a sandy substrate. Six days later pots were each treated with 5 ml of a WP10 suspension of the test compound. Hereafter, pots were inoculated with 3000 eggs of M. incognita. The trial was harvested fourteen days after trial application and inoculation. Root galling was assessed according to Zeck's gall index (Zeck W. M. (1971) Ein Bonitierungsschema zur Feldauswertung von Wurzelgallenbefall. Pflanzenschutznachrichten Bayer 24, 1: 144-147). Phytotoxicity was measured as a reduction of growth of the emerged cucumber seedling in comparison to the control.

A short description of another series: LogP (Table 1). The class given is physicochemical.
The subject of series [2] is Pratylenchus zeae (Corn Lesion Nematode). Kind of series: Pratylenchus zeae contact activity, preventive, coated corn seeds. The class given is in vivo. The note with it: seed treatment 1 mg Al/seed, corn cv. LG4620, 1500 nematodes, 7 days after inoculation. On the procedure: Coated corn cv. LG4620 seeds were sown 1 cm deep into 45 ml pots with soil (7:3 w/w—a mixture of 70% field soil and 30% quartz Sand). Two days after sowing the pots were infested with 1500 nematodes (all stages) of Pratylenchus zeae within a 2 ml suspension in two holes to the left and right of the seed hole. Assessment of phytotoxicity (in %) and nematode numbers within the root system occurred 7 days after inoculation. The upper plant part was cut off and the roots were washed free of soil debris. Nematodes within the roots were stained with acid fuchsin stain solution. Nematodes within the roots were quantified under a dissecting scope at 40×. Seed treatment rate: 1 mg Al/seed

Where [3] appears, read: 1.6 ppm, cucumber pouch test, read-out: Mortality (%).
Where [4] appears, read: 8 ppm, cucumber pouch test, read-out: Mortality (%).
Setting [5] is: 40 ppm, cucumber pouch test, read-out: Mortality (%).
[6] abbreviates: 200 ppm, cucumber pouch test, read-out: Mortality (%).
The mark [7] stands for this setting: 0.16 ppm, cucumber pot test, read-out: Mortality (%).
Where [8] appears, read: 0.8 ppm, cucumber pot test, read-out: Mortality (%).
[9] abbreviates: 4 ppm, cucumber pot test, read-out: Mortality (%).
[10] abbreviates: 20 ppm, cucumber pot test, read-out: Mortality (%).

The mortality is the share of the test organisms that died. For orientation: logP means a log measure of how a compound divides between an organic and an aqueous phase. A lower logP goes with lower lipophilicity. By melting point is commonly meant the temperature, or range, at which the solid turns liquid.

The structures appear in SMILES notation. Read-outs that look alike come from different tables or passages of the source.

In series [1], `Cc1nc(C(F)(F)F)c(C(=O)N[C@H]2CC[C@H]2c2ccc(Cl)cc2Cl)s1` [C, reference compound] gave a mortality at 1.6 ppm of 0%, a mortality at 8 ppm of 0%, a mortality at 40 ppm of 0% and a mortality at 200 ppm of 0%. Also, in the series on M. incognita, the mortality at 0.16 ppm is 0%, the mortality at 0.8 ppm came to 0%, the mortality at 4 ppm was 0% and the mortality at 20 ppm was found to be 0%.

Take `O=C(N[C@H]1CC[C@H]1c1ccc(Cl)cc1Cl)c1scnc1C(F)(F)F` [Example 7, N-[(1S,2S)-2-(2,4-dichlorophenyl)cyclobutyl]-4-(trifluoromethyl)thiazole-5-carboxamide]: in “LogP (Table 1)”, the logP amounted to 3.44. The mortality at 1.6 ppm in series [1] (setting [3]) stood at 77%. In addition, the mortality at 8 ppm in series [1] (setting [4]) was 90%. Further, in series [1] (setting [5]), the mortality at 40 ppm was 98%. For the same molecule, in series [1] (setting [6]), the mortality at 200 ppm is 99%. For the same molecule, the mortality at 0.16 ppm in the series on M. incognita (setting [7]) worked out at 14%. Also, the mortality at 0.8 ppm in the series with M. incognita (setting [8]) stood at 14%. Also, the mortality at 4 ppm with M. incognita (setting [9]) came out at 60%. Also, in the series on M. incognita (setting [10]), the mortality at 20 ppm came out at 99%.

Turning to `O=C(N[C@H]1CC[C@H]1c1ccc(F)cc1Cl)c1scnc1C(F)(F)F` [Example 5, N-[(1S,2S)-2-(2-chloro-4-fluoro-phenyl)cyclobutyl]-4-(trifluoromethyl)thiazole-5-carboxamide], the “reduction of nematode population compared to the untreated control” value in series [2] is on record as “greater than 80%”. The molecule further had a logP in “LogP (Table 1)” of 2.92.

For the molecule `O=C(N[C@H]1CC[C@H]1c1ccc(Cl)cc1Cl)c1scnc1C(F)F` [Example 9, N-[(1S,2S)-2-(2,4-dichlorophenyl)cyclobutyl]-4-(difluoromethyl)thiazole-5-carboxamide], the logP in “LogP (Table 1)” turned out to be 3.25. For the same molecule, the mortality at 1.6 ppm in series [1] (setting [3]) was 0%. In addition, in series [1] (setting [4]), the mortality at 8 ppm was found to be 64%. In series [1] (setting [5]), the mortality at 40 ppm worked out at 81%. For the same molecule, in series [1] (setting [6]), the mortality at 200 ppm came to 98%. For the same molecule, the mortality at 0.16 ppm in the series on M. incognita (setting [7]) is 22%. Also, the mortality at 0.8 ppm with M. incognita (setting [8]) came out at 61%. The mortality at 4 ppm in the series with M. incognita (setting [9]) amounted to 97%. For the same molecule, the mortality at 20 ppm in the series with M. incognita (setting [10]) is 98%.

In turn, `O=C(N[C@H]1CC[C@H]1c1ccc(Cl)cc1)c1scnc1C(F)(F)F` [Example 4, N-[(1S,2S)-2-(4-chlorophenyl)cyclobutyl]-4-(trifluoromethyl)thiazole-5-carboxamide] displayed a melting point of 103 to 108 °C. The molecule further displayed a logP in “LogP (Table 1)” of 3.21.

With `O=C(N[C@H]1CC[C@H]1c1ccc(F)cc1F)c1scnc1C(F)F` [Example 8, 4-(difluoromethyl)-N-[(1S,2S)-2-(2,4-difluorophenyl)cyclobutyl]thiazole-5-carboxamide], in “LogP (Table 1)”, the logP worked out at 2.4.

Consider `O=C(N[C@H]1CC[C@H]1c1ccc(F)cc1F)c1scnc1C(F)(F)F` [Example 6, N-[(1S,2S)-2-(2,4-difluorophenyl)cyclobutyl]-4-(trifluoromethyl)thiazole-5-carboxamide], for which the logP in the series “LogP (Table 1)” was 2.71.
